Reference: ChEMBL document CHEMBL3228010, “Potential antitumor agents. 29. Quantitative structure-activity relationships for the antileukemic bisquaternary ammonium heterocycles” (J Med Chem, 1979)

Experiments:
[1] = test system: L1210; experiment: Antitumor activity against mouse L1210 cells […] in ip dosed C3H X DBA2 F1 hybrid mouse on day 0 and dosed at LD10 level once daily on days 1 to 5 assessed as increase in life span relative to control; assay type: functional
[2] = organism: Bos taurus; experiment: Displacement of ethidium from calf thymus DNA by fluorimetric method
[3] = test system: Mus musculus; experiment: Toxicity in ip dosed C3H X DBA2 F1 hybrid mouse […] with mouse L1210 cells on day 0 and dosed once daily on days 1 to 5 measured after 50 days; assay type: organism-based; details: in vivo, 1200 h
[4] = test system: L1210; experiment: Antitumor activity against mouse L1210 cells […] in ip dosed C3H X DBA2 F1 hybrid mouse on day 0 and dosed once daily on days 1 to 5 assessed as increase in life span relative to control; assay type: functional
[5] = Lipophilic-hydrophilic balance, Rm of the compound by partition chromatography; assay type: physicochemical
[6] = Displacement of ethidium from poly[d(A-T)]-poly[d(A-T)] DNA by fluorimetric method
[7] = Displacement of ethidium from poly[d(G-C)]-poly[d(G-C)] DNA (unknown origin) by fluorimetric method

## C[n+]1ccc(Nc2ccc(C(=O)Nc3ccc(Nc4cc[n+](C)c5cc(N)ccc45)cc3)c(N)c2)cc1.Cc1ccc(S(=O)(=O)[O-])cc1.Cc1ccc(S(=O)(=O)[O-])cc1
[1]
  log(ILSmax): 2.38
[2]
  C50: 0.44 µM
[3]
  LD10: 20 mg/kg
[4]
  D40: 1.7 mg/kg
[5]
  Rm: -0.12
[6]
  C50: 0.14 µM
[7]
  C50: 0.77 µM

## C[n+]1ccc(Nc2ccc(S(=O)(=O)Nc3ccc(Nc4c5ccccc5[n+](C)c5cc(N)ccc45)cc3)cc2)cc1.[O-][Cl+3]([O-])([O-])[O-].[O-][Cl+3]([O-])([O-])[O-]
[1]
  log(ILSmax): 2.18
[2]
  C50: 0.1 µM
[3]
  LD10: 35 mg/kg
[4]
  D40: 5 mg/kg
[5]
  Rm: 0.57
[6]
  C50: 0.07 µM
[7]
  C50: 0.12 µM

## C[n+]1cccc(NC(=O)c2ccc(NC(=O)c3ccc(C(=O)Nc4ccc(NC(=N)N)cc4)cc3)cc2)c1.I.[I-]
[1]
  log(ILSmax): 2.18
[2]
  C50: 1.38 µM
[3]
  LD10: 8 mg/kg
[4]
  D40: 0.2 mg/kg
[5]
  Rm: -0.12
[6]
  C50: 0.91 µM
[7]
  C50: 2.07 µM

## C[n+]1ccc(Nc2ccc(NC(=O)/C=C/c3ccc(Nc4cc[n+](C)c5ccccc45)cc3)cc2)cc1.[Br-].[Br-]
[1]
  log(ILSmax): 2.22
[2]
  C50: 0.38 µM
[3]
  LD10: 22 mg/kg
[4]
  D40: 1.3 mg/kg
[5]
  Rm: 0.28
[6]
  C50: 0.15 µM
[7]
  C50: 0.71 µM

## C[n+]1ccc(Nc2ccc(C(=O)Nc3ccc(Nc4cc[n+](C)c5ccc(N)cc45)cc3)cc2)cc1.Cc1ccc(S(=O)(=O)[O-])cc1.Cc1ccc(S(=O)(=O)[O-])cc1
[1]
  log(ILSmax): 2.3
[2]
  C50: 0.6 µM
[3]
  LD10: 11 mg/kg
[4]
  D40: 1.2 mg/kg
[5]
  Rm: 0.05
[6]
  C50: 0.12 µM
[7]
  C50: 1.2 µM

## COc1cc(C(=O)Nc2ccc(C(=O)Nc3ccc[n+](C)c3)cc2)ccc1C(=O)Nc1ccc(C(=O)Nc2ccc[n+](C)c2)cc1.Cc1ccc(S(=O)(=O)[O-])cc1.Cc1ccc(S(=O)(=O)[O-])cc1
[1]
  log(ILSmax): 1.72
[2]
  C50: 0.64 µM
[3]
  LD10: 18 mg/kg
[4]
  D40: 10.3 mg/kg
[5]
  Rm: 0.23
[6]
  C50: 0.64 µM
[7]
  C50: 1.51 µM

## C[n+]1ccc(-c2ccc(-c3ccc(-c4ccc(/N=N/Nc5ccc(C(=O)Nc6ccc(-c7ccc(-c8ccc(-c9cc[n+](C)cc9)cc8)cc7)cc6)cc5)cc4)cc3)cc2)cc1.Cc1ccc(S(=O)(=O)[O-])cc1.Cc1ccc(S(=O)(=O)[O-])cc1
[1]
  log(ILSmax): 2.34
[2]
  C50: 0.83 µM
[3]
  LD10: 6 mg/kg
[4]
  D40: 1.4 mg/kg
[5]
  Rm: -0.22
[6]
  C50: 0.1 µM
[7]
  C50: 0.38 µM

## CC[n+]1cccc(NC(=O)c2ccc(NC(=O)c3ccc(NC(=O)c4ccc(C(=O)Nc5ccc[n+](CC)c5)cc4)cc3)cc2)c1.Cc1ccc(S(=O)(=O)[O-])cc1.Cc1ccc(S(=O)(=O)[O-])cc1
[1]
  log(ILSmax): 1.9
[2]
  C50: 0.5 µM
[3]
  LD10: 33 mg/kg
[4]
  D40: 9.1 mg/kg
[5]
  Rm: -0.44
[6]
  C50: 0.43 µM
[7]
  C50: 0.65 µM

## Cc1cc(Nc2ccc(NC(=O)c3ccc(C(=O)Nc4ccc(Nc5cc(C)[n+](C)c(N)n5)cc4)cc3)cc2)nc(N)[n+]1C.Cc1ccc(S(=O)(=O)[O-])cc1.Cc1ccc(S(=O)(=O)[O-])cc1
[1]
  log(ILSmax): 2.12
[2]
  C50: 0.5 µM
[3]
  LD10: 250 mg/kg
[4]
  D40: 75 mg/kg
[5]
  Rm: -0.71
[6]
  C50: 0.4 µM
[7]
  C50: 0.8 µM

## C[n+]1cccc(NC(=O)c2ccc(NC(=O)c3ccc(C(=O)Nc4ccc(Nc5cc[n+](C)c6ccc(N)cc56)cc4)cc3)cc2)c1.Cc1ccc(S(=O)(=O)[O-])cc1.Cc1ccc(S(=O)(=O)[O-])cc1
[1]
  log(ILSmax): 1.95
[2]
  C50: 0.31 µM
[3]
  LD10: 140 mg/kg
[4]
  D40: 22.1 mg/kg
[5]
  Rm: -0.47
[6]
  C50: 0.22 µM
[7]
  C50: 0.34 µM

## COc1ccc2c(c1)c(Nc1ccc(C(=O)Nc3ccc(Nc4cc[n+](C)cc4)cc3)cc1)cc[n+]2C.Cc1ccc(S(=O)(=O)[O-])cc1.Cc1ccc(S(=O)(=O)[O-])cc1
[1]
  log(ILSmax): 2.2
[2]
  C50: 0.68 µM
[3]
  LD10: 50 mg/kg
[4]
  D40: 1.5 mg/kg
[5]
  Rm: 0.46
[6]
  C50: 0.19 µM
[7]
  C50: 1.15 µM

## Br.C/C(=N\NC(=N)N)c1ccc(NC(=O)c2ccc(Nc3cc[n+](C)c4ccc(N)cc34)cc2)cc1.[Br-]
[1]
  log(ILSmax): 2.31
[2]
  C50: 0.4 µM
[3]
  LD10: 28 mg/kg
[4]
  D40: 2.1 mg/kg
[5]
  Rm: -0.45
[6]
  C50: 0.11 µM
[7]
  C50: 0.5 µM

## C[n+]1ccc(Nc2ccc(NC(=O)c3ccc(Nc4cc[n+](C)c5ccc(Cl)cc45)cc3)cc2)cc1.Cc1ccc(S(=O)(=O)[O-])cc1.Cc1ccc(S(=O)(=O)[O-])cc1
[1]
  log(ILSmax): 1.81
[2]
  C50: 0.79 µM
[3]
  LD10: 40 mg/kg
[4]
  D40: 14 mg/kg
[5]
  Rm: 0.57
[6]
  C50: 0.24 µM
[7]
  C50: 1.76 µM

## C[n+]1cccc2cc(NC(=O)c3ccc(NC(=O)c4ccc(C(=O)Nc5ccc6c(ccc[n+]6C)c5)cc4)cc3)ccc21.Cc1ccc(S(=O)(=O)[O-])cc1.Cc1ccc(S(=O)(=O)[O-])cc1
[1]
  log(ILSmax): 2.04
[2]
  C50: 0.37 µM
[3]
  LD10: 100 mg/kg
[4]
  D40: 39 mg/kg
[5]
  Rm: -0.7
[6]
  C50: 0.28 µM
[7]
  C50: 0.36 µM

## C[n+]1cccc(NC(=O)c2ccc(NC(=O)c3ccc(C(=O)Nc4ccc(C(=O)Nc5ccc[n+](C)c5)cc4)c4ccccc34)cc2)c1.Cc1ccc(S(=O)(=O)[O-])cc1.Cc1ccc(S(=O)(=O)[O-])cc1
[1]
  log(ILSmax): 1.84
[2]
  C50: 1.5 µM
[3]
  LD10: 140 mg/kg
[4]
  D40: 54.5 mg/kg
[5]
  Rm: 0.45
[6]
  C50: 1.1 µM
[7]
  C50: 2.7 µM

## C/C(=N\NC(=N)N)c1ccc(NC(=O)c2ccc(Nc3cc[n+](C)c4cc(N)ccc34)cc2)cc1.Cc1ccc(S(=O)(=O)O)cc1.Cc1ccc(S(=O)(=O)[O-])cc1
[1]
  log(ILSmax): 2.2
[2]
  C50: 0.53 µM
[3]
  LD10: 31 mg/kg
[4]
  D40: 4 mg/kg
[5]
  Rm: -0.36
[6]
  C50: 0.19 µM
[7]
  C50: 1 µM

## COc1cc(N)cc2c(Nc3ccc(NC(=O)c4ccc(Nc5cc[n+](C)cc5)cc4)cc3)cc[n+](C)c12.Cc1ccc(S(=O)(=O)[O-])cc1.Cc1ccc(S(=O)(=O)[O-])cc1
[1]
  log(ILSmax): 2.33
[2]
  C50: 0.31 µM
[3]
  LD10: 56 mg/kg
[4]
  D40: 1.1 mg/kg
[5]
  Rm: 0.07
[6]
  C50: 0.1 µM
[7]
  C50: 0.61 µM

## C[n+]1ccc(Nc2ccc(NC(=O)/C=C/c3ccc(C(=O)Nc4ccc(Nc5cc[n+](C)cc5)c(N)c4)cc3)cc2N)cc1.Cc1ccc(S(=O)(=O)[O-])cc1.Cc1ccc(S(=O)(=O)[O-])cc1
[1]
  log(ILSmax): 2.3
[2]
  C50: 1.5 µM
[3]
  LD10: 6.7 mg/kg
[4]
  D40: 1.4 mg/kg
[5]
  Rm: 0.04
[6]
  C50: 0.08 µM
[7]
  C50: 1.5 µM

## C[n+]1cccc2ccc(NC(=O)c3ccc(-c4ccc(-c5ccc(-c6ccc(C(=O)Nc7ccc8ccc[n+](C)c8c7)cc6)cc5)cc4)cc3)cc21.Cc1ccc(S(=O)(=O)[O-])cc1.Cc1ccc(S(=O)(=O)[O-])cc1
[1]
  log(ILSmax): 1.85
[2]
  C50: 0.17 µM
[3]
  LD10: 52 mg/kg
[4]
  D40: 20 mg/kg
[5]
  Rm: -0.57
[6]
  C50: 0.14 µM
[7]
  C50: 0.28 µM

## C[n+]1cccc(NC(=O)c2ccc(NC(=O)/C=C/c3ccc(C(=O)Nc4ccc(C(=O)Nc5ccc[n+](C)c5)cc4)cc3)cc2)c1.Cc1ccc(S(=O)(=O)[O-])cc1.Cc1ccc(S(=O)(=O)[O-])cc1
[1]
  log(ILSmax): 1.99
[2]
  C50: 0.3 µM
[3]
  LD10: 100 mg/kg
[4]
  D40: 21 mg/kg
[5]
  Rm: -0.95
[6]
  C50: 0.22 µM
[7]
  C50: 0.23 µM

## C[n+]1ccc(Nc2ccc(NC(=O)/C=C/c3ccc(/C=C/C(=O)Nc4ccc(Nc5cc[n+](C)cc5)cc4)cc3)cc2)cc1.Cc1ccc(S(=O)(=O)[O-])cc1.Cc1ccc(S(=O)(=O)[O-])cc1
[1]
  log(ILSmax): 1.88
[2]
  C50: 0.31 µM
[3]
  LD10: 10 mg/kg
[4]
  D40: 5.1 mg/kg
[5]
  Rm: -0.7
[6]
  C50: 0.11 µM
[7]
  C50: 0.38 µM

## C/C(=N\NC(=N)N)c1ccc(NC(=O)c2ccc(C(=O)Nc3ccc(C(=O)Nc4ccc[n+](C)c4)cc3)cc2)cc1.Cc1ccc(S(=O)(=O)O)cc1.Cc1ccc(S(=O)(=O)[O-])cc1
[1]
  log(ILSmax): 1.93
[2]
  C50: 0.46 µM
[3]
  LD10: 20 mg/kg
[4]
  D40: 8.7 mg/kg
[5]
  Rm: -0.53
[6]
  C50: 0.3 µM
[7]
  C50: 0.52 µM

## CC[n+]1cccc2cc(NC(=O)c3ccc(-c4ccc(-c5ccc(-c6ccc(C(=O)Nc7ccc8c(ccc[n+]8CC)c7)cc6)cc5)cc4)cc3)ccc21.Cc1ccc(S(=O)(=O)[O-])cc1.Cc1ccc(S(=O)(=O)[O-])cc1
[1]
  log(ILSmax): 2.16
[2]
  C50: 0.3 µM
[3]
  LD10: 31 mg/kg
[4]
  D40: 10.5 mg/kg
[5]
  Rm: -0.1
[6]
  C50: 0.18 µM
[7]
  C50: 0.61 µM

## C[n+]1cc(-c2ccc(NC(=O)/C=C/c3ccc(C(=O)Nc4ccc(-c5c[n+](C)c(N)nc5N)cc4)cc3)cc2)c(N)nc1N.Cc1ccc(S(=O)(=O)[O-])cc1.Cc1ccc(S(=O)(=O)[O-])cc1
[1]
  log(ILSmax): 2.2
[2]
  C50: 0.4 µM
[3]
  LD10: 50 mg/kg
[4]
  D40: 10.7 mg/kg
[5]
  Rm: -0.62
[6]
  C50: 0.11 µM
[7]
  C50: 0.57 µM

## C[n+]1ccc(Nc2ccc(NC(=O)c3ccc(Nc4cc[n+](C)c5cc([N+](=O)[O-])ccc45)cc3)cc2)cc1.Cc1ccc(S(=O)(=O)[O-])cc1.Cc1ccc(S(=O)(=O)[O-])cc1
[1]
  log(ILSmax): 2.02
[2]
  C50: 0.69 µM
[3]
  LD10: 27 mg/kg
[4]
  D40: 3 mg/kg
[5]
  Rm: 0.15
[6]
  C50: 0.2 µM
[7]
  C50: 1.3 µM
